Test results: US9901637B2, “Vitamin D3 and analogs thereof for treating alopecia” (priority 2009, dated 2018)

What was measured:
[1] = tested on: chemotherapy-induced alopecia (CIA); assay: Alopecia in chloroleukemic rats receiving multi-course chemotherapy, topical calcitriol; conditions: for Extent of Alopecia: number of rats with grade 4+: rats treated with Cyclophosphamide (CTX), 4+=75-100% alopecia
Text: Long Evans Rats (Harlan Laboratories, Inc) were 3 days old upon arrival. The weight of the animals was obtained upon arrival and every day until the conclusion of the experiments using an electronic scale (American Scientific Products TL 410s). Rats were housed for two days prior to the beginning of experiments. Animals were then randomized in four groups.
Treatments were started on day 6 after birth. […] Each application entailed rubbing an area of 2 cm^2 for 10 seconds with right index finger covered with a nitrile exam glove. After the completion of the treatments, each rat was individually separated for 6 hours. Subsequently each rat's head and back was washed with mild hand soap (Soft CIDE-EC from VWR International) and distilled water. Pups where then placed back with their mothers and taken back to the animal rooms. For the second anagen cycle, adult rats were placed back in their cages with their littermates and taken back to the animal rooms.
On day 23 after birth, a blood sample was taken from all rats and differentials were performed. Rats with leukemia were sacrificed while rats without leukemia were used for further experiments. A second differential was performed on day 31, and leukemic animals were sacrificed.
Vials of 1 mL were subdivided and kept in the refrigerator at 4° C. […] Unused preparations were disposed of.
For the second course of chemotherapy, rats received 20 mg/kg ADM on days 47 to 49 as described above.

[2] = tested on: MIAC51; assay: Survival (cure) rate of chloroleukemic rats after two rounds of chemotherapy; type: in vivo, Long Evans Rats; conditions: rats treated with Cyclophosphamide (CTX), after Two Rounds of Chemotherapy
Method: Animals were then randomized in four groups. All rats received MIAC51 as described below.
On day 5 after birth all rats received 1×105 MIAC51 intraperitoneally in 0.1 ml of serum free (SF) RPMI. MIAC51 were cultured in RPMI 1640 supplemented with L-glutamine and 10% fetal bovine serum at […] in a 5% CO2, 100% humidity incubator. Cells were grown to 50% confluency (1.5×106 ml) collected in 50 ml conical tubes, centrifuged at 600 g for 10 minutes at room temperature and resuspended in SF-RPMI at a concentration of 1×10^6/ml prior to injection.

[3] = tested on: chemotherapy-induced alopecia (CIA); conditions: neonatal rats, i.p. chemotherapy, recorded 10 days after last dose
Method: Specifically, Long Evans and Sprague Dawley rats with pups were purchased from Harlan Laboratories, Inc. They were housed and fed according to applicable animal handling rules and regulations. Pups were allowed to acclimate for 48 hours prior to the start of experiments. […] Rats were isolated from their littermates and mother for 6-hour periods of time. Subsequently, the treated area was cleaned with soap and water and pups were returned to their litters. On day 13, rats either received etoposide (1.5 mg/kg daily for 3 days) or cyclophosphamide (CTX) (37.5 mg/kg once) or combination cyclophosphamide (35 mg/kg once) and doxorubicin (2.5 mg/kg daily for 3 days). All chemotherapies were purchased from Sigma and were given intraperitoneally (i.p.) in a total volume of 0.1 mL. Alopecia was recorded 10 days after the last dose of chemotherapy.

SMILES: O=P1(N(CCCl)CCCl)NCCCO1 (centres unmarked) [CTX, cyclophosphamide]
- extent of alopecia (grade) in all rats receiving chemotherapy alone ([1]; chloroleukemic Long Evans rats, after the first round of chemotherapy): +4
- Extent of Alopecia: number of rats with grade 4+ ([1]; after First Round of Chemotherapy): 40
- Extent of Alopecia: number of rats with grade 4+ ([1]; after Second Round of Chemotherapy): 8
- Survival Rate, % cured [2]: 20%
- alopecia in rats receiving chemotherapy without calcitriol [3]: totally alopecic
